Measured values as given in US20200316038A1, “METHODS AND COMPOSITIONS FOR TREATING UREA CYCLE DISORDERS, IN PARTICULAR OTC DEFICIENCY” (CAMP4 THERAPEUTICS CORPORATION, priority 2017, published 2020).
Where two headings read alike, the source gives them in different places.

What was measured:
[1] = system: OTC; assay: RNA-seq, OTC expression in compound-treated primary human hepatocytes; assay type: cell-based
[2] = system: ASS1; assay: RNA-seq, ASS1 expression in compound-treated primary human hepatocytes; assay type: cell-based
[3] = system: ARG1; assay: RNA-seq, ARG1 expression in compound-treated primary human hepatocytes; assay type: cell-based
[4] = system: CPS1; assay: RNA-seq, CPS1 expression in compound-treated primary human hepatocytes; assay type: cell-based
[5] = system: multiple urea cycle-related genes; assay: RNA-seq, compounds that modulate multiple urea cycle-related genes; assay type: cell-based; conditions: primary human hepatocytes; for Up-regulated Genes: urea cycle-related genes significantly increased by the compound
[6] = system: OTC; assay: siRNA transfection of primary human hepatocytes, OTC qPCR; assay type: cell-based; conditions: siRNA 10 nM, 48hrs, vs control non-targeting siRNA
Procedure: Primary human hepatocytes were reversed transfected with 6pmol siRNA using RNAiMAX Reagent (ThermoFisher Cat No13778030) in 24 well format, 1 ul per well (for a final cone of 10 nM). The following morning, the medium was removed and replaced with Modified Maintenance Medium (see above) for an additional 24 hrs. The entire treatment lasted 48hrs, at which point the medium was removed and replaced with RLT Buffer for RNA extraction (Qiagen RNeasy 96 QIAcube HT Kit Cat#74171). siRNAs were obtained from Dharmacon and are a pool of four siRNA duplex all designed to target distinct sites within the specific gene of interest (known as “SMARTpool”). They were tested against the control non-targeting siRNA D-001206-13-05.
Isolated RNA was processed for cDNA synthesis and qPCR as described above. Taqman assay used for OTC measurement: Hs00166892_m1

[7] = system: SLC25A15; assay: RNA-seq, SLC25A15 expression in compound-treated primary human hepatocytes; assay type: cell-based; conditions: compounds that significantly increase SLC25A15 expression
[8] = system: ASL; assay: RNA-seq, ASL expression in compound-treated primary human hepatocytes; assay type: cell-based
[9] = target: RARγ (Homo sapiens, UniProt P13631); conditions: cited from earlier work
RARγ, sequence (P13631 whole entry, species assumed): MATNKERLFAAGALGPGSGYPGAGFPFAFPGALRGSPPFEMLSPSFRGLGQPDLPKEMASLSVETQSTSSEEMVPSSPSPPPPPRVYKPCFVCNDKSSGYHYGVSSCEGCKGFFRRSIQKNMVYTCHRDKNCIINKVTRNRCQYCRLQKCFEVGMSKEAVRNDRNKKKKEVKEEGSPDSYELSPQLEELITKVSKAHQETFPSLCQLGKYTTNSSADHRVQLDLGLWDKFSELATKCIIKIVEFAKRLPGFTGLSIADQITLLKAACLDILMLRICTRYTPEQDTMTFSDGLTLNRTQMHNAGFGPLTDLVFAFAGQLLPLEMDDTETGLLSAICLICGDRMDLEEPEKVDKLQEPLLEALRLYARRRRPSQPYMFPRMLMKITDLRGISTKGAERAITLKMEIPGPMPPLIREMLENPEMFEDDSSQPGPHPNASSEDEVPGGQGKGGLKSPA

[10] = target: RARα (Homo sapiens, UniProt P10276); conditions: cited from earlier work
RARα, sequence (P10276 whole entry, species assumed): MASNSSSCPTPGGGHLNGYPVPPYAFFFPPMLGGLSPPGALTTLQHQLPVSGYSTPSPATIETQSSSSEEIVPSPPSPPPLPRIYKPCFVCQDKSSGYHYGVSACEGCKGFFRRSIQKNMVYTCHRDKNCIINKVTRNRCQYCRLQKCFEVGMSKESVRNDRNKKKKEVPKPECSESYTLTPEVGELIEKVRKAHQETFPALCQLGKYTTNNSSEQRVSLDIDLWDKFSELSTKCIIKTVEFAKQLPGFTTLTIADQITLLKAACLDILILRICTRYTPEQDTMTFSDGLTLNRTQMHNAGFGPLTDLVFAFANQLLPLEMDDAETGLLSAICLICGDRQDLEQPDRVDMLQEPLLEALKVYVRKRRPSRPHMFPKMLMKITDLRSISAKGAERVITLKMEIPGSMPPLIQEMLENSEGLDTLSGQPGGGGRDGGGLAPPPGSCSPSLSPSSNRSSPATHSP

[11] = target: RARβ (Homo sapiens, UniProt P10826); conditions: cited from earlier work
RARβ, sequence (P10826 whole entry, species assumed): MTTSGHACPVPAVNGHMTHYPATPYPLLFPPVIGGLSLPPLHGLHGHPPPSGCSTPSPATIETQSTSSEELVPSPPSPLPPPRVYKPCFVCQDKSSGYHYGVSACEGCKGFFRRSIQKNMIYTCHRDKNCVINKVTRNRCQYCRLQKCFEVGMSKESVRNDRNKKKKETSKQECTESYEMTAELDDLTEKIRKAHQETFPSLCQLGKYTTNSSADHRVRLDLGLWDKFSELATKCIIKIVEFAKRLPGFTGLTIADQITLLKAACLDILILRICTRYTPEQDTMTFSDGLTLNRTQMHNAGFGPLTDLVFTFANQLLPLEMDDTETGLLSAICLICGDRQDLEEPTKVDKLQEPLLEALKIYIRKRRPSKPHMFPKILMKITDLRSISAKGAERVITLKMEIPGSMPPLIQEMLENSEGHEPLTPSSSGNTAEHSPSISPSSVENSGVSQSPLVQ

[12] = system: NAGS
[13] = RNA-seq, primary human hepatocytes, compounds that significantly increase ARG1 expression

Molecule | Fold change (Log 2) vs untreated [2] [Log 2] | ARG1 expression, Fold change (Log 2) vs untreated [3, 13] [Log 2] | Fold change (Log 2) vs untreated [4] [Log 2] | number of urea cycle genes whose expression was significantly up-regulated [5] | Up-regulated Genes [5] | SLC25A15 expression, Fold change (Log 2) vs untreated [7] [Log 2] | also measured
TNF-α | 0.58 | 1.87 | 2.31 | four | CPS1, ASS1, OTC, ARG1 |  | Fold change (Log 2) vs untreated [1]: 0.87 Log 2
IRF1 (DNA GAAAGTGAAAGT; siRNA; chemistry not fully specified) |  |  |  |  |  |  | Max fold change in OTC [6]: 1.70
COc1nc(N)nc2c1ncn2[C@@H]1O[C@H](COP(=O)(N[C@@H](C)C(=O)OCC(C)(C)C)Oc2cccc3ccccc23)[C@@H](O)[C@@]1(C)O (some centres unmarked) [bms-986094 (inx-189)] |  |  |  |  |  | 1.18 | 
C[C@]12CC[C@H]3[C@@H](CCC4=CC(=O)CC[C@@]43C)[C@@H]1CC[C@@H]2C(=O)CO [Deoxycorticosterone] | 0.6 | 1.37 | 3.79 | four | CPS1, ASS1, ARG1, SLC25A15 |  | 
Yy1 |  |  |  |  |  |  | Max fold change in OTC [6]: 1.71
CNC[C@H](O)c1ccc(O)c(O)c1 [Epinephrine] | 1.08 |  | 4.85 | five |  | 1.14 | ASL expression, Fold change (Log 2) vs untreated [8]: 0.6 Log 2; ARG1 expression, Fold change (Log 2) vs untreated [3]: 2.28 Log 2
COCCOCOc1cc2ccc(-c3ccc(C(=O)O)cc3)cc2cc1C12CC3CC(CC(C3)C1)C2 [CD 2665] |  |  |  |  |  |  | Kd [9]: 110 nM; Kd [10]: > 1000 nM; Kd [11]: 306 nM; NAGS expression, Fold change (Log 2) vs untreated [12]: 0.62 Log 2
CN(C)[C@@H]1C(O)=C(C(N)=O)C(=O)[C@@]2(O)C(O)=C3C(=O)c4c(O)c(NC(=O)CN5CCCC5)cc(F)c4C[C@H]3C[C@@H]12 [TP-434 (Eravacycline), Eravacycline] | 0.76 |  |  |  |  |  | NAGS expression, Fold change (Log 2) vs untreated ([12]; RNA-seq, primary human hepatocytes, compounds that significantly increase NAGS expression): 1.5 Log 2
PDGF |  | 1.85 | 2.12 | four | CPS1, OTC, ARG1, SLC25A15 | 0.71 | Fold change (Log 2) vs untreated [1]: 0.77 Log 2
